From US8486647B2, “Neuropeptide release assay for sodium channels” (priority 2010, dated 2013) come the findings set out here.

Where “and” joins values, the source holds several entries; their conditions need not be identical. Identical values can stand only once.

One assay relates to Scn9a^3.1/3.1 DRG. The experiment in a line: CGRP release assay, Scn9a^3.1/3.1 DRG. Type of assay: cell-based, mouse.
The subject of a further assay is Scn9a^+/+ DRG. Briefly: CGRP release assay, Scn9a^+/+ DRG. In kind it is cell-based, mouse.

With `CCN(CC)CC(=O)Nc1c(C)cccc1C` [Lidocaine], in the assay with Scn9a^3.1/3.1 DRG, the “inflammatory mix-induced release of CGRP” value is recorded as “notably enhanced”.
Turning to `NC1=N[C@H](O)[C@H]2[C@H]3O[C@]4(O)O[C@@H]([C@@H](O)[C@@]2(N1)[C@@H]4O)[C@]3(O)CO` [TTX, Tetrodotoxin], the “inflammatory mix-induced release of CGRP” value in the assay on Scn9a^+/+ DRG is “notably enhanced”.
For ProTx-II [Pro-TXII], in the assay with Scn9a^+/+ DRG, the CGRP released was 186 ± 40 pg/mL and 126 ± 25 pg/mL; the “inflammatory mix-induced release of CGRP” value was “notably enhanced”.
